# Entries after “also recorded” stand apart in the source; their conditions may differ.
# Assays:
# mESC lines E14 and R1 = test: Whole gene expression profiling (microarray) of mESC lines E14 and R1; format: cell-based, mouse; conditions: APH plus inhibitor
# Procedure: The quality of total RNA was first assessed using an Agilent Bioanalyzer 2100 (Agilent Technologies, Palo Alto, Calif.). Biotin-labeled cDNA targets were synthesized starting from 150 ng of total RNA. Double stranded cDNA synthesis and related cRNA was performed with GeneChip® WT Plus Kit (Affymetrix, Santa Clara, Calif.). With the same kit was synthesized the sense strand cDNA before to be fragmented and labeled. […] Each eukaryotic GeneChip® probe array contains probe sets for several B. subtilis genes that are absent in the samples analyzed (lys, phe, thr, and dap). This Poly-A RNA Control Kit contains in vitro synthesized, polyadenylated transcripts for these B. subtilis genes that are pre-mixed at staggered concentrations to allow GeneChip® probe array users to assess the overall success of the assay.
# Hybridization was performed using the GeneAtlas™ Hybridization, Wash and Stain Kit. […] Targets were diluted in hybridization buffer at a concentration of 0.05 μg/ul, denatured at 99° C. for 5 minutes, incubated at 45° C. for 5 minutes and centrifuged at 5,000 rpm for 1 minute. The Array Strip is then moved to a hybridization tray, which contains the hybridization cocktails. A single Gene 2.1 PEG Array Strip is hybridized with four different biotin-labeled targets. Hybridizations were performed for 20 hours at 48° C. in the GeneAtlas™ Hybridization Station. The Array Strips were washed and stained in the GeneAtlas™ Personal Fluidics Station. At the end of this procedure the array strips were placed into the imaging tray, which contains the Array Holding buffer.
# The array strips were imaged using the GeneAtlas™ Imaging Station. Affymetrix GeneAtlas™ Command Console software was used to acquire the Array Strip images and […].
# The CAMERA gene set enrichment p-values were calculated using the limma package and the camera function 30.
# In the GSVA based enrichment analysis, we used the MsigDB gene sets, and transformed the individual gene expression values into gene set expression values with the GSVA package 32. We calculated the gene set differential expression as in the gene level differential expression analysis, only skipping the RMA normalization step.
# [1] = test system: 2C-like genes (Zscan4, MuERV-L/MERVL, Dux) in ESCs (E14, R1); test: qPCR for 2C-like specific genes in ESCs; format: cell-based, mouse; conditions: ESC lines E14 and R1; time and dosage-dependent
# Procedure: (§1) All treatments including APH, HU, UV, ATRi, ATMi and Chk1i were added in to fresh ESC medium and the cells were kept in 37° C. and 3% 02 tension for overnight (16-17 hrs) unless mentioned in each particular result section. APH was used at various concentrations ranging from 0.3 uM to 6 uM that is mentioned in each experiment in order to induce mild to acute replication stress response. Similarly, HU was used at 0.1 mM-3 mM. ATMi (KU-55933) and ATRi (VE 822) were used at the concentration of 10 uM and 1 uM respectively. Moreover, Chk1i (UCN-01) at the concentration of 100 nM was used. UV radiation was performed at the dosage ranging from 2 to 10 J/m2. For induction of ETAA1-AAD expression, Dox was used at the concentration of 1 μg/mL for 48 hrs.
# RNA was extracted using RNeasy mini kit (QIAGEN), quantified by NanoDrop spectrophotometer and cDNA was prepared from 2 μg total DNA-depleted RNA using SuperScript™ III reverse transcriptase kit (Invitrogen cat #18080-093) following manufacturer's instructions. qPCR assay performed based on standard protocol using 10× SsoFast™ EvaGreen® Supermix or later 1× LightCycler 480 SYBR Green I Master (Roche, 04707516001), 0.5 μM primer mix and 5 ng of cDNA. GAPDH was used as internal control to normalise the qPCR data following ΔΔCt method, 10 μM primer mix and a total amount of cDNA corresponding to 5 ng of starting RNA for each reaction.
# pZscan4-Emerald ESCs = test: FACS analysis of Zscan4-Emerald ESCs (Emerald-GFP positive cells); format: cell-based, mouse
# Procedure: as §1
# ESCs were fixed and permeabilized using Cytoperm/Cytofix kit (BD Biosciences), and subsequently stained for one hour at room temperature with Alexa Fluor® 647 anti-H2AX-Phosphorylated (Ser139) antibody (Biolegend) or P-CHK1-PE conjugated antibody (cell signaling 12268). Cells were washed and acquired on a FACS Calibur instrument or Attune NxT (Thermo Fisher Scientific). For Emerald-GFP acquisition, cells were trypsinized, collected and subsequently acquired without fixation. Cell cycle profiles were acquired after incubation with DAPI (4′,6-diamidino-2-phenylindole) overnight. For Caspase3 FACS analysis after fixation and permeabilization, Cleaved Caspase3 antibody were used for one hr at RT followed by washes and one hr incubation in donkey anti rabbit secondary antibody. […]
# Zscan4 = conditions: previous work; cited from earlier work
smiles,measurement,setting,value
Cn1c(=O)c2c(ncn2C)n(C)c1=O [Caffeine],two placenta-related gene categories upon ATR inhibition,mESC lines E14 and R1,robustly suppressed
"NC(=O)NO [HU, hydroxyurea]",expression of Zscan4 and MuERV-L (QPCR and FACS),[1],significantly upregulated
same,number of Emerald-GFP positive (Em+) ESCs,"pZscan4-Emerald ESCs; RS inducing agents, dose-dependent, qPCR and FACS",significant increase
O=c1cc(-c2cccc3c2Sc2ccccc2S3)oc(N2CCOCC2)c1 [KU-55933],"elevated expression of 2C-like specific genes (Zscan4, MERVL) upon APH and HU treatment","pZscan4-Emerald ESCs; inhibitor added under replication stress, flow cytometry and immunoblot, listed as ATM inhibitor",could not alter
same,number of Zscan4-Emerald positive cells,"pZscan4-Emerald ESCs; normal culture condition, ATRi 1 uM, ATMi 10 uM",did not change; also recorded: did not significantly reduce
COC(=O)Nc1nc2ccc(C(=O)c3cccs3)cc2[nH]1 [nocodazole],Zscan4 expression upon G2/M arrest,Zscan4,not sufficient to trigger Zscan4 expression
